Values of other authors in paper PMC7751758, “Repurposing Sigma-1 Receptor Ligands for COVID-19 Therapy?” (Frontiers in Pharmacology, 2020).
Entries after “also recorded” stand apart in the source; their conditions may differ.

Experiments:
[1] = system: HIV; conditions: exposure to cocaine, by activating Sig-1R; ref Roth et al., 2005
[2] = system: SARS-CoV
[3] = system: EBOV; conditions: mouse, in vivo
[4] = system: Ebola; conditions: in vivo
[5] = system: COVID-19; conditions: 2020
[6] = system: HCV; conditions: entry and assembly steps in Huh-7.5.1 cells, ref Cheng et al., 2013
[7] = system: Ebola virus (EBOV)
[8] = system: SARS-CoV-2 in Huh-7 cells; conditions: for antiviral potency: devoid of cytotoxicity, ref Mirabelli et al., 2020
[9] = system: SARS-CoV-2 in iPSC-derived alveolar epithelial type 2 cells (iAEC2s); conditions: ref Mirabelli et al., 2020, read-out: IC50 against SARS-CoV-2
[10] = system: Huh-7 cells; conditions: ref Mirabelli et al., 2020; read-out: CC50 (cell toxicity)
[11] = system: MERS-CoV
[12] = system: EBOV; conditions: guinea pig, in vivo
[13] = target: Sigma-1 receptor
[14] = system: CHIKV; conditions: cytopathic effect induced by Chikungunya virus and other alphaviruses (Semliki Forest virus and Sindbis virus), ref Pohjala et al., 2011, listed as chloroquine
[15] = system: HCoV-OC43; conditions: mothers treated daily with chloroquine (15 mg/kg); ref Keyaerts et al., 2009
[16] = system: HCoV-OC43; conditions: replication in HRT-18 cells, ref Keyaerts et al., 2009
[17] = system: HCoV-229E; conditions: replication in cell culture, ref de Wilde et al., 2014, listed as chloroquine
[18] = associated with bioaccumulation of the drugs; ref Palmeira et al., 2020

Compound: COC(=O)[C@H]1[C@@H](OC(=O)c2ccccc2)C[C@@H]2CC[C@H]1N2C [cocaine]
- HIV infection [1]: enhance HIV infection

Compound: CCCCc1oc2ccccc2c1C(=O)c1cc(I)c(OCCN(CC)CC)c(I)c1 [Amiodarone]
- Antiviral activity: Virus [2]: inhibit the spreading in vitro of SARS-CoV
- survival of infected mice [3]: increased survival
- case fatality rate compared with local historical data [4]: decrease in case fatality rate
- outcome of a patient with COVID-19-related respiratory failure ([5]; case report, off-label short therapy 5 days with supportive measures, ref Castaldo et al.): recovered
- Antiviral activity: Virus [6]: inhibit
- viral inhibition [7]: > 50%
- antiviral potency [8]: below 1 µM

Compound: Cc1cc(OCCN2CCOCC2)nn1-c1ccc2ccccc2c1 [E-52862 (S1RA)]
- IC50 [9]: 1 µM
- CC50 [10]: > 5 µM
- antiviral potency [8]: below 1 µM
- IC50 ([8]; ref Mirabelli et al., 2020, read-out: IC50 against SARS-CoV-2): 0.222 µM

Compound: CCN(CC)CCCC(C)Nc1ccnc2cc(Cl)ccc12 (centres unmarked) [Chloroquine]
- Antiviral activity: Virus [2]: inhibited the replication of SARS-CoV; also recorded: in vitro activity
- Antiviral activity: Virus [11]: in vitro activity
- survival of infected mice [3]: increased survival
- decreasing the likelihood of death or speeding recovery ([5]; large, randomized clinical trial in hospitalized patients, ref FDA communication): no benefit
- survival [12]: none of the tested doses increased survival
- IC50 ([13]; read-out: Sigma-1 receptor affinity IC50): 2.3 µM
- Ki ([13]; read-out: Sigma-1 receptor affinity Ki): 0.109 µM
- Antiviral activity: Virus [14]: inhibition of the cytopathic effect
- cellular toxicity [7]: < 30%
- viral inhibition [7]: > 50%
- HCoV-OC43-induced death in newborn mice [15]: prevented HCoV-OC43-induced death
- Antiviral activity: Virus [16]: inhibited HCoV-OC43 replication
- Antiviral activity: Virus [17]: inhibited the replication
- side effects [18]: serious retinopathies and cardiopathies
